Earlier results on one compound are cited in patent publication US20240009133A1, “METHODS OF TREATING AUTOIMMUNE OR INFLAMMATORY CONDITIONS WITH CANNABIDIOL OR ITS DERIVATIVES/ANALOGS” (ORCOSA INC., priority 2020, published 2024).

For this series the following is noted: oral, randomized control trial in Crohn's disease.

As for `C=C(C)[C@@H]1CCC(C)=C[C@H]1c1c(O)cc(CCCCC)cc1O` [CBD, cannabidiol], the efficacy entry is on record as “no statistical efficacy demonstrated” and the safety entry is reported as “safe”.
